Patent US20080107614A1, “PEPTIDE-BASED CONDITIONERS” (priority 2006, published 2008)
Ends that are not written are not given here. * marks the point of attachment. Biotin = O=C1N[C@H]2[C@H](CS[C@H]2CCCCC(=O)*)N1

Assays:
[1] = Titer-based assay of hair-binding phage clones; set-up: species or system human; details: output pfu retained by 10 mg of normal hair; input 10^14 pfu; acid-eluted phage
Method: Phage clones displaying specific peptides were used for comparing the binding characteristics of different peptide sequences. A titer-based assay was used to quantify the phage binding. This assay measures the output pfu retained by 10 mg of hair surfaces, having a signal to noise ratio of 10^3 to 10^4. The input for all the phage clones was 10^14 pfu. It should be emphasized that this assay measures the peptide-expressing phage particle, rather than peptide binding.
Normal hairs were cut into 0.5 cm lengths and 10 mg of the cut hair was placed in each well of a 96-well filter plate (Qiagen). Then, the wells were filled with blocking buffer containing 1 mg/mL BSA in TBST-0.5% and incubated for 1 h at 4° C. The hairs were washed 5 times with TBST-0.5%. The wells were then filled with 1 mL of TBST-0.5% containing 1 mg/mL BSA and then purified phage clones (10^14 pfu) were added to each well. The hair samples were incubated for 15 min at room temperature and then washed 10 times with TBST-0.5%. The hairs were transferred to a clean well and 1.0 mL of a non-specific elution buffer, consisting of 1 mg/mL BSA in 0.2 M Glycine-HCl at pH 2.2, was added to each well. The samples were incubated for 10 min and then 160 μL of neutralization buffer (1 M Tris-HCl, pH 9.2) was added to each well. The eluted phage from each well were transferred to a new tube for titering and sequencing analysis.
To titer the bound phage, the eluted phage was diluted with SM buffer to prepare 10-fold serial dilutions of 10^1 to 10^8. A 10 μL aliquot of each dilution was incubated with 200 μL of mid-log phase E. coli ER2738 (New England BioLabs), and grown in LB medium for 20 min and then mixed with 3 mL of agarose top (LB medium with 5 mM MgCl2, and 0.7% agarose) at 45° C. This mixture was spread onto a LB medium/IPTG/Xgal (5-bromo-4-chloro-3-indolyl-β-D-galactopyranoside) plate (LB medium with 15 g/L agar, 0.05 g/L IPTG, and 0.04 g/L Xgal) and incubated overnight at 37° C.

[2] = ELISA of phage-peptide clones on pig skin (specificity control); type: binding; details: for Pig Skin A450: phage ELISA, anti-M13 HRP conjugate, mean of at least three replicates
Method: (§1) Enzyme-linked immunosorbent assay (ELISA) was used to evaluate the hair-binding specificity of selected phage-peptide clones. Phage-peptide clones identified in Examples 1 and 2 along with a randomly chosen control G-F9, KHGPDLLRSAPR (given as SEQ ID NO:63) were amplified. More than […] (plaque forming units) phage were added to pre-blocked hair surfaces.
(§2) A unique hair or pig skin-bottom 96-well apparatus was created by applying one layer of PARAFILM® under the top 96-well block of a Minifold I Dot-Blot System (Schleicher & Schuell, Inc., Keene, N.H.), adding hair or a layer of hairless pig skin on top of the PARAFILM® cover, and then tightening the apparatus. For each clone to be tested, the hair-covered well was incubated for 1 h at room temperature with 200 μL of blocking buffer, consisting of 2% non-fat dry milk (Schleicher & Schuell, Inc.) in TBS. A second Minifold system with pig skin at the bottom of the wells was treated with blocking buffer simultaneously to serve as a control. The blocking buffer was removed by inverting the systems and blotting them dry with paper towels. The systems were rinsed 6 times with wash buffer consisting of TBST-0.05%. The wells were filled with 200 μL of TBST-0.5% containing 1 mg/mL BSA and then 10 μL (over […]) of purified phage stock was added to each well. The samples were incubated at 37° C. for 15 min with slow shaking. The non-binding phage was removed by washing the wells 10 to 20 times with TBST-0.5%. Then, 100 μL of horseradish peroxidase/anti-M13 antibody conjugate (Amersham USA, Piscataway, N.J.), diluted 1:500 in the blocking buffer, was added to each well and incubated for 1 h at room temperature. The conjugate solution was removed and the wells were washed 6 times with TBST-0.05%. TMB (3,3′,5,5′-tetramethylbenzidine) substrate (200 μL), obtained from Pierce Biotechnology (Rockford, Ill.) was added to each well and the color was allowed to develop for between 5 to 30 min, typically for 10 min, at room temperature. Then, stop solution (200 μL of 2 M H2SO4) was added to each well and the solution was transferred to a 96-well plate and the A450 was measured using a microplate spectrophotometer (Molecular Devices, Sunnyvale, Calif.). The resulting absorbance values, reported as the mean of at least three replicates, and the standard error of the mean (SEM) are given in Table 10.

[3] = ELISA of phage-peptide clones on hair; type: binding, human; details: for Hair A450: phage ELISA, anti-M13 HRP conjugate, mean of at least three replicates
Method: as §1, §2

[4] = ELISA-based MB50 determination on pig skin; type: binding; details: for binding affinity for skin: in words, from MB50; for EC50: substrate Pig Skin, biotinylated peptide
Excerpt: (§3) The term “MB50” refers to the concentration of the binding peptide that gives a signal that is 50% of the maximum signal obtained in an ELISA-based binding assay as described herein. The MB50 provides an indication of the strength of the binding interaction or affinity of the components of the complex. The lower the value of MB50, the stronger the interaction of the peptide with its corresponding substrate.
(§4) Hair-binding and skin-binding peptides were synthesized by SynPep Inc. (Dublin, Calif.). The peptides were biotinylated by adding a biotinylated lysine residue at the C-terminus of the amino acid binding sequences for detection purposes and an amidated cysteine was added to the C-terminus of the sequence.
(§5) For hair samples, the procedure used was as follows. The setup of the surface specific 96-well system used was the same as that described in Example 5. Briefly, the 96-wells with hair or pig skin surfaces were blocked with blocking buffer (SUPERBLOCK™ from Pierce Chemical Co., Rockford, Ill.) at room temperature for 1 h, followed by six washes with TBST-0.5%, 2 min each, at room temperature. Various concentrations of biotinylated, binding peptide were added to each well, incubated for 15 min at 37° C., and washed six times with TBST-0.5%, 2 min each, at room temperature. Then, streptavidin-horseradish peroxidase (HRP) conjugate (Pierce Chemical Co.) was added to each well (1.0 μg per well), and incubated for 1 h at room temperature. After the incubation, the wells were washed six times with TBST-0.5%, 2 min each at room temperature. Finally, the color development and the measurement were performed as described in Example 5.
For the measurement of MB50 of the peptide-skin complexes, the following procedure was used. First, the pigskin was treated to block the endogenous biotin in the skin. This was done by adding streptavidin to the blocking buffer. After blocking the pigskin sample, the skin was treated with D-biotin to block the excess streptavidin binding sites. The remaining steps were identical to those used for the hair samples.
(§6) The results were plotted as A450 versus the concentration of peptide using GraphPad Prism 4.0 (GraphPad Software, Inc., San Diego, Calif.).

[5] = ELISA-based MB50 determination on hair; type: binding, human; details: for binding affinity for respective substrate (hair): in words, from MB50; for EC50: biotinylated peptide
Excerpt: as §3, §4, §5, §6

[6] = Peptide competition ELISA with D21 phage; type: binding, human
Method: The purpose of this Example was to test the peptide binding site specificity and affinity of the hair-binding peptide D21 using a competition ELISA. The ELISA assay only detects phage particles that remain bound to the hair surface.
The synthetic hair-binding peptide D21, given as SEQ ID NO:46 was synthesized by SynPep (Dublin, Calif.). As a control, an unrelated synthetic skin-binding peptide (SK-1), given as SEQ ID NO:61, was added to the system. The experimental conditions were similar to those used in the ELISA method described in Example 5. Briefly, 100 μL of Binding Buffer (1×TBS with 0.1% Tween® 20 and 1 mg/mL BSA) and 10^11 pfu of the pure D21 phage particles were added to each well of the 96-well filter plate, which contained a sample of normal hair. The synthetic peptide (100 μg) was added to each well (corresponding to concentration of 0.8 mM). The reactions were carried out at room temperature for 1 h with gentle shaking, followed by five washes with TBST-0.5%. The remaining steps were identical to the those used in the ELISA method described in Example 5. Each individual ELISA test was performed in triplicate; the values in Table 11 are the means of the triplicate determinations.

[7] = in words, from the data in Table 10

Row | Substance | Phage Titer [1] | Pig Skin A450 [2] | Hair A450 [3] | other results
1 | MPLYYLQ (displayed on phage; Hair-binding peptide) [Clone E] | 1.70 × 10^5 | – | – | –
2 | HPVWPAI (displayed on phage; Hair-binding peptide) [Clone D] | 8.20 × 10^4 | – | – | –
3 | MHAHSIA (displayed on phage; Hair-binding peptide) [Clone A36] | – | 0.173 | 0.585 | –
4 | TDMQAPTKSYSN [Clone C5] | – | 0.047 | 0.548 | –
5 | EQISGSLVAAPW [Clone A5] | – | 0.256 | 0.431 | –
6 | LGIPQNL (displayed on phage; Hair-binding peptide) [Clone D39] | – | 0.086 | 0.685 | –
7 | Binding Peptide D21: biotinylated hair-binding peptide D21 (binding sequence SEQ ID NO:46) (RTNAADHPAAVTK(Biotin)C-NH2; N-terminus assumed; SMILES CC(C)[C@H](NC(=O)[C@H](C)NC(=O)[C@H](C)NC(=O)[C@@H]1CCCN1C(=O)[C@H](Cc1c[nH]cn1)NC(=O)[C@H](CC(=O)O)NC(=O)[C@H](C)NC(=O)[C@H](C)NC(=O)[C@H](CC(N)=O)NC(=O)[C@@H](NC(=O)[C@@H](N)CCCNC(=N)N)[C@@H](C)O)C(=O)N[C@H](C(=O)N[C@@H](CCCCNC(=O)CCCC[C@@H]1SC[C@@H]2NC(=O)N[C@@H]21)C(=O)N[C@@H](CS)C(N)=O)[C@@H](C)O) | – | – | – | binding affinity for skin [4]: relatively low
8 | AKTHKHPAPSYS [Clone C13] | – | 0.024 | 0.375 | –
9 | SLNWVTIPGPKI [Clone C10] | – | 0.032 | 0.542 | –
10 | I-B5 (TPPELLHGDPRS; Hair-binding peptide) [listing 1 of 2 here] | – | – | – | binding affinity for skin [4]: relatively low; binding affinity for respective substrate (hair) [5]: high
11 | GPHDTSSGGVRPNLHHTSKKEKRENRKVPFYSHSVTSRGNV [Clone D5] | – | 0.104 | 0.652 | –
12 | TPALDGLRQPLR [Clone C18] | – | 0.132 | 0.34 | –
13 | NSPGYQADSVAIG [Clone D30] | – | 0.287 | 0.414 | –
14 | HIKPPTR (displayed on phage; Hair-binding peptide) [Clone B] | 1.21 × 10^5 | – | – | –
15 | HLTVPWRGGGSAVPFYSHSQITLPNH [Clone F] | 1.11 × 10^6 | – | – | –
16 | MPKYYLQ (displayed on phage; Hair-binding peptide) [Clone J] | 1.24 × 10^6 | – | – | –
17 | KHPTYRQ (displayed on phage; Hair-binding peptide) [Clone H] | 1.30 × 10^6 | – | – | –
18 | RTNAADHPAAVT [Peptide D21] | – | 0.04 | 1.051 | affinity for pig skin [2, 7]: very low; competition with the phage clone D21 for the same binding sites on the hair surface ([6]; in words): does compete; EC50 [4]: 40000 nM; binding affinity for hair [3, 7]: very strong; selectivity for hair compared to pig skin [3, 7]: highest; binding affinity for respective substrate (hair) [5]: high; EC50 ([5]; substrate Normal Hair): 2000 nM
19 | TAATTSP (displayed on phage; Hair-binding peptide) [Clone B1] | – | 0.127 | 0.42 | –
20 | TPFHSPENAPGS [SK-1] | – | – | – | binding affinity for skin [4]: high; EC50 [4]: 700 nM
21 | LPRIANTWSPS [Clone F35] | – | – | – | binding affinity for respective substrate (hair) [5]: high; EC50 ([5]; substrate Bleached Hair): 3000 nM
22 | GPHDTSSGGVRPNLHHTSKKEKRENRKVPFYSHSVTSRGNV [Clone G] | 1.67 × 10^8 | – | – | –
23 | DLHTVYH (displayed on phage; Hair-binding peptide) [Clone A] | 7.50 × 10^4 | – | – | –
24 | I-B5 (TPPELLHGDPRS; Hair-binding peptide) [listing 2 of 2 here] | – | – | – | EC50 [4]: > 100000 nM; EC50 ([5]; substrate Normal and Bleached Hair): 300 nM
25 | RTNAADHPAAVT [Clone D21] | – | – | – | A450 ([6]; 10^11 pfu D21 phage on normal hair, synthetic peptide 100 μg per well (0.8 mM) where added, mean of triplicate): 1.878
26 | KHGPDLLRSAPR [Clone G-F9, reference compound] | – | −0.137 | 0.074 | –
